{
  "source": "ChEMBL document CHEMBL5715954",
  "about": "“Silencing c-Myc translation as a therapeutic strategy through targeting PI3Kδ and CK1ε in hematological malignancies” (Blood, 2017)",
  "set-up_in_all_cases": "scale not given: the % may be the effect or the level left",
  "key": {"[1]": {"molecular_target": "Mitogen-activated protein kinase 11 (Homo sapiens) (UniProt Q15759)", "sequence (Q15759 whole entry)": "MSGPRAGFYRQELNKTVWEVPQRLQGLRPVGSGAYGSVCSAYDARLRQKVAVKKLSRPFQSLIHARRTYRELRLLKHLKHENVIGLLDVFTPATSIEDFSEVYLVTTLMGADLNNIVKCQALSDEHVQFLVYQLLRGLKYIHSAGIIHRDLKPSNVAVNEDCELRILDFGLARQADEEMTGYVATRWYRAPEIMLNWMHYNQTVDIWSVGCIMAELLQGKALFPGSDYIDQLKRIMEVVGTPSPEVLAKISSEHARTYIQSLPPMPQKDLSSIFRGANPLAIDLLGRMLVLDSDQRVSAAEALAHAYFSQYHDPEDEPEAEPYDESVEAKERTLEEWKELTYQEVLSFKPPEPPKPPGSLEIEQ", "experiment": "Inhibition of human P38b assessed as enzyme activity at 1 uM using myelin basic protein as substrate preincubated for 20 mins followed by [gamma-33P]-ATP addition and measured after 120 mins by radiometric Hot-SpotSM Kinase assay relative to control"}, "[2]": {"molecular_target": "Receptor tyrosine-protein kinase erbB-2 (Homo sapiens) (UniProt P04626)", "sequence (P04626 whole entry)": "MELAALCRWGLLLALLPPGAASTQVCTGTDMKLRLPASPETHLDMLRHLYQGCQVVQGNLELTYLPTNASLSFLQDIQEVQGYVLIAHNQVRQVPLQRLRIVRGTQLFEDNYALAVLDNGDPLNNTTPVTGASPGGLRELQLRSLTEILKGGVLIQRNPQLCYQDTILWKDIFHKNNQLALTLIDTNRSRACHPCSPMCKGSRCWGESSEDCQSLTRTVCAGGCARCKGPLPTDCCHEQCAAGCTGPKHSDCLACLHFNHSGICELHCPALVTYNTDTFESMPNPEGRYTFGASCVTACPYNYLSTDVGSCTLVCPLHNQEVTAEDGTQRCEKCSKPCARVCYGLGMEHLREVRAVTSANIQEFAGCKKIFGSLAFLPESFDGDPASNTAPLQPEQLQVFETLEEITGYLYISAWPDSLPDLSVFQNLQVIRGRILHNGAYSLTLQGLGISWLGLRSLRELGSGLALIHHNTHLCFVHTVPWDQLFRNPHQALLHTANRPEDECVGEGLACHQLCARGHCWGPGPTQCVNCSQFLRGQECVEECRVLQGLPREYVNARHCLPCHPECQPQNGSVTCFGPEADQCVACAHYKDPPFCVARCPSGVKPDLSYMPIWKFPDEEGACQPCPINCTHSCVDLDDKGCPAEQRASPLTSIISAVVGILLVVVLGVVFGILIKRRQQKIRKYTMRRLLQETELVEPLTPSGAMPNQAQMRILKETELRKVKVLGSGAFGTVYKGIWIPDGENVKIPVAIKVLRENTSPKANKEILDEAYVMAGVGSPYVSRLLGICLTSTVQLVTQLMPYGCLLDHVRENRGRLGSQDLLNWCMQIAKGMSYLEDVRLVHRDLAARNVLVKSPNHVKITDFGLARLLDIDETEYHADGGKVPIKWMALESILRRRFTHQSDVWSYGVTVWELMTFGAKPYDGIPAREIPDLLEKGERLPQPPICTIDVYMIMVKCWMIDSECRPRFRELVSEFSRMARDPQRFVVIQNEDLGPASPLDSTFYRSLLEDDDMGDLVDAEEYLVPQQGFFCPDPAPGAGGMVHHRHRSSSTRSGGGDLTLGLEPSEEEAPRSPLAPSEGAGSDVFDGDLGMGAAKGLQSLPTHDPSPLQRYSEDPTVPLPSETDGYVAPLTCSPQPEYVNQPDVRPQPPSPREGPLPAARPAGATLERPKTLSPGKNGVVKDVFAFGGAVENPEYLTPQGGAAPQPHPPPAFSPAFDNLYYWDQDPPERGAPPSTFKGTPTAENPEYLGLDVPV", "experiment": "Inhibition of human ERBB2 assessed as enzyme activity at 1 uM using poly[Glu:Tyr] (4:1) as substrate preincubated for 20 mins followed by [gamma-33P]-ATP addition and measured after 120 mins by radiometric Hot-SpotSM Kinase assay relative to control"}, "[3]": {"molecular_target": "T1, Lymphokine-activated killer T-cell-originated protein kinase (Homo sapiens) (UniProt Q96KB5)", "T1 sequence (whole entry)": "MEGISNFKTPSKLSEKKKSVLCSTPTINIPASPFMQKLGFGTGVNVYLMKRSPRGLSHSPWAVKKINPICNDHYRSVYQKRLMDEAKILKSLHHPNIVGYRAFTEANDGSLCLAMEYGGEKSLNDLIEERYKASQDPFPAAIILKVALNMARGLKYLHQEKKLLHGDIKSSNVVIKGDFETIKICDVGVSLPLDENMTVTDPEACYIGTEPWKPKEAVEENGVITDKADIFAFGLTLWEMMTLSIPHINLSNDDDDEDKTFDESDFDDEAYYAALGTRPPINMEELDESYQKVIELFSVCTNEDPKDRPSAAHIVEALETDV", "experiment": "Inhibition of human PBK assessed as enzyme activity at 1 uM using myelin basic protein as substrate preincubated for 20 mins followed by [gamma-33P]-ATP addition and measured after 120 mins by radiometric Hot-SpotSM Kinase assay relative to control"}, "[4]": {"molecular_target": "Activin receptor type-1-like (Homo sapiens) (UniProt P37023)", "experiment": "Inhibition of human ALK1 assessed as enzyme activity at 1 uM using casein as substrate preincubated for 20 mins followed by [gamma-33P]-ATP addition and measured after 120 mins by radiometric Hot-SpotSM Kinase assay relative to control"}, "[5]": {"molecular_target": "Protein kinase C eta type (Homo sapiens) (UniProt P24723)", "sequence (P24723 whole entry)": "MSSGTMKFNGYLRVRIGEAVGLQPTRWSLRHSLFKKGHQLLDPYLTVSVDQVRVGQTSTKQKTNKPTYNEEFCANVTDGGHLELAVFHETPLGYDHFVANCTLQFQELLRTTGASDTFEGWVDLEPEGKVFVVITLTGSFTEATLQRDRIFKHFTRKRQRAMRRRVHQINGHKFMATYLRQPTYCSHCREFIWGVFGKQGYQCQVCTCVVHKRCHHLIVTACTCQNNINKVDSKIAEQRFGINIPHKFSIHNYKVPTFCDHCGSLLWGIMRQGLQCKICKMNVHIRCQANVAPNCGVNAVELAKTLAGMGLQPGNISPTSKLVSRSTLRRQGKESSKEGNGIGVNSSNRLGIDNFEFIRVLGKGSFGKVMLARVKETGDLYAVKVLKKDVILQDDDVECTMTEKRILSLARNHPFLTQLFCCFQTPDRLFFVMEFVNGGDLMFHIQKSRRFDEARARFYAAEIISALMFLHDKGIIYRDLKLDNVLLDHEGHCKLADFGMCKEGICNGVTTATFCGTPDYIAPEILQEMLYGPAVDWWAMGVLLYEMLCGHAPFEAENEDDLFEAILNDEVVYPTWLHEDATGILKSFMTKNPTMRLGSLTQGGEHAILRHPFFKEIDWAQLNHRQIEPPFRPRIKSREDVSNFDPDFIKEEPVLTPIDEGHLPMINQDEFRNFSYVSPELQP", "experiment": "Inhibition of human PKCeta assessed as enzyme activity at 1 uM using ERMRPRKRQGSVRRRV as substrate preincubated for 20 mins followed by [gamma-33P]-ATP addition and measured after 120 mins by radiometric Hot-SpotSM Kinase assay relative to control"}, "[6]": {"molecular_target": "T2, Protein kinase C iota type (Homo sapiens) (UniProt P41743)", "T2 sequence (whole entry)": "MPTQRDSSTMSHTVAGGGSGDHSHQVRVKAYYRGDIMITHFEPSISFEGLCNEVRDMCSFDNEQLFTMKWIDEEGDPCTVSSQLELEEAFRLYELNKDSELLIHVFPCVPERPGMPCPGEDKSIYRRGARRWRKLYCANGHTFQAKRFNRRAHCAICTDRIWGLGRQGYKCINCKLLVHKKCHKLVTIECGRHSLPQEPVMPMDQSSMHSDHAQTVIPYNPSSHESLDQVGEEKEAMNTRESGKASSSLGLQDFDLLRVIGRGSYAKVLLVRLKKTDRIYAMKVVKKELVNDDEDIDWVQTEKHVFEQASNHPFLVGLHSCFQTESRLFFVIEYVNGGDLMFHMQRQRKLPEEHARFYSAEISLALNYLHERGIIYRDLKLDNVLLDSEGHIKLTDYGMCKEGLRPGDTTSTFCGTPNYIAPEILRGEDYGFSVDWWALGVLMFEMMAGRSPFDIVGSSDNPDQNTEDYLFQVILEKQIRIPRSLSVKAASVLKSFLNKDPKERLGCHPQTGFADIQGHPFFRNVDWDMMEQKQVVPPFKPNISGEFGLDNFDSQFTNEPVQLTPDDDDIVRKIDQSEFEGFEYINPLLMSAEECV", "experiment": "Inhibition of human PKCiota assessed as enzyme activity at 1 uM using ERMRPRKRQGSVRRRV as substrate preincubated for 20 mins followed by [gamma-33P]-ATP addition and measured after 120 mins by radiometric Hot-SpotSM Kinase assay relative to control"}, "[7]": {"molecular_target": "Serine/threonine-protein kinase WNK1 (Homo sapiens) (UniProt Q9H4A3)", "experiment": "Inhibition of human WNK1 assessed as enzyme activity at 1 uM using myelin basic protein as substrate preincubated for 20 mins followed by [gamma-33P]-ATP addition and measured after 120 mins by radiometric Hot-SpotSM Kinase assay relative to control"}, "[8]": {"molecular_target": "Protein kinase C delta type (Homo sapiens) (UniProt Q05655)", "sequence (Q05655 whole entry, looked up)": "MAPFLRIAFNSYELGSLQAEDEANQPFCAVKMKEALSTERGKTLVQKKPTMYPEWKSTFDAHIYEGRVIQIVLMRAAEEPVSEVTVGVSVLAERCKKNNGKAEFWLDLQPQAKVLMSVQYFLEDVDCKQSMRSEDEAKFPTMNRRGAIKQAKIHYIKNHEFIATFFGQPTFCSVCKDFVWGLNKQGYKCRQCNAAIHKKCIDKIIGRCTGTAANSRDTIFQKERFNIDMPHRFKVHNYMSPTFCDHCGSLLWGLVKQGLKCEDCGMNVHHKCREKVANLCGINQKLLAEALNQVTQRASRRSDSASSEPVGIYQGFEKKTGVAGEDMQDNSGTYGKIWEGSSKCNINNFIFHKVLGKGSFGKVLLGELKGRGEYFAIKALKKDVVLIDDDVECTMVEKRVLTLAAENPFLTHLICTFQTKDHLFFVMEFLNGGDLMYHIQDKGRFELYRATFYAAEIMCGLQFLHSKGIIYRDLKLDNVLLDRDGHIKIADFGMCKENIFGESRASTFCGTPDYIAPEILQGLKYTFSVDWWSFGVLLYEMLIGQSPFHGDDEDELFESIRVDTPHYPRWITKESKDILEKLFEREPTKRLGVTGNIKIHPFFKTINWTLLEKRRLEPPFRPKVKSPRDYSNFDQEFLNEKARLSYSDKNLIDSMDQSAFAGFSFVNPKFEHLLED", "experiment": "Inhibition of human PKCd assessed as enzyme activity at 1 uM using ERMRPRKRQGSVRRRV as substrate preincubated for 20 mins followed by [gamma-33P]-ATP addition and measured after 120 mins by radiometric Hot-SpotSM Kinase assay relative to control"}, "[9]": {"molecular_target": "Tyrosine-protein kinase Fgr (Homo sapiens) (UniProt P09769)", "experiment": "Inhibition of human FGR assessed as enzyme activity at 1 uM using poly[Glu:Tyr] (4:1) as substrate preincubated for 20 mins followed by [gamma-33P]-ATP addition and measured after 120 mins by radiometric Hot-SpotSM Kinase assay relative to control"}, "[10]": {"molecular_target": "T3, Serine/threonine-protein kinase Sgk1 (Homo sapiens) (UniProt O00141)", "T3 sequence (whole entry)": "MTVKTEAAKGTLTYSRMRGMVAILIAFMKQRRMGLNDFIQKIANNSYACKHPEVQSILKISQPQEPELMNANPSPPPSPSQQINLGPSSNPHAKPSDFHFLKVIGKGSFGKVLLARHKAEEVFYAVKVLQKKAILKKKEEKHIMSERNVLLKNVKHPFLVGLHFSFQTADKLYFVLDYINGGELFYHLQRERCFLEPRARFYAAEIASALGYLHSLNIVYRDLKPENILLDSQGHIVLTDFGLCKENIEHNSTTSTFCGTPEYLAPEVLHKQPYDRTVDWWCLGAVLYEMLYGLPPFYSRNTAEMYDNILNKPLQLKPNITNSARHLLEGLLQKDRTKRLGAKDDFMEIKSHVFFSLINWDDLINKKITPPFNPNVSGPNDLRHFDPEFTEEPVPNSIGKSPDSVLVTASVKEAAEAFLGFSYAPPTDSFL", "experiment": "Inhibition of human SGK1 assessed as enzyme activity at 1 uM using KGSGSGRPRTSSFAEG as substrate preincubated for 20 mins followed by [gamma-33P]-ATP addition and measured after 120 mins by radiometric Hot-SpotSM Kinase assay relative to control"}, "[11]": {"molecular_target": "Mast/stem cell growth factor receptor Kit (Homo sapiens) (UniProt P10721)", "sequence (P10721 whole entry)": "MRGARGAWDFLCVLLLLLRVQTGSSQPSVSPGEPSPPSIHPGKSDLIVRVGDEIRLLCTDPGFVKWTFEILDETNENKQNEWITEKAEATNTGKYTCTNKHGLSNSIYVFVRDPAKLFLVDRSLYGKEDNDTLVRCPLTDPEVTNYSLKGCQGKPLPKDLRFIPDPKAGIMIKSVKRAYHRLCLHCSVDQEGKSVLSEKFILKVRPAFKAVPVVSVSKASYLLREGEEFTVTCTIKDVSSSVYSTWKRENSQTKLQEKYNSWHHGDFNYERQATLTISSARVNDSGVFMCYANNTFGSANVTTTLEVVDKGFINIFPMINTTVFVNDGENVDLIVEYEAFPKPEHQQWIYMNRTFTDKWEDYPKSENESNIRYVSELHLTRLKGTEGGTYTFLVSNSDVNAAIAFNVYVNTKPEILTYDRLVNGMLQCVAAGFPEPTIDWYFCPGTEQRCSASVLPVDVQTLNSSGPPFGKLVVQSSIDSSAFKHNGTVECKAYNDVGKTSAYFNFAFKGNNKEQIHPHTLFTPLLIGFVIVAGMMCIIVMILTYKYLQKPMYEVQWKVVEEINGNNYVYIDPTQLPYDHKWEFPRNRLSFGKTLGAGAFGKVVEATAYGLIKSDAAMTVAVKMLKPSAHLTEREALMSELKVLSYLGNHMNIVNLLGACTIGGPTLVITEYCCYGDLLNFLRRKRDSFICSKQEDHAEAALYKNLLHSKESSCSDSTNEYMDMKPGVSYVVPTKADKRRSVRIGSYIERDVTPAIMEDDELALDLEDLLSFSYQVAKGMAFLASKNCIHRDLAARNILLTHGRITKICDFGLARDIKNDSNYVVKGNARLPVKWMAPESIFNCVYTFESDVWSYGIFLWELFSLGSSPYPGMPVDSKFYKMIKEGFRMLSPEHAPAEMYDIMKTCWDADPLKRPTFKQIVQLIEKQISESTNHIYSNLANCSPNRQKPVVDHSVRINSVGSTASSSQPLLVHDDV", "experiment": "Inhibition of human c-Kit assessed as enzyme activity at 1 uM using poly[Glu:Tyr] (4:1) as substrate preincubated for 20 mins followed by [gamma-33P]-ATP addition and measured after 120 mins by radiometric Hot-SpotSM Kinase assay relative to control"}, "[12]": {"molecular_target": "Serine/threonine-protein kinase PAK 6 (Homo sapiens) (UniProt Q9NQU5)", "sequence (Q9NQU5 whole entry, looked up)": "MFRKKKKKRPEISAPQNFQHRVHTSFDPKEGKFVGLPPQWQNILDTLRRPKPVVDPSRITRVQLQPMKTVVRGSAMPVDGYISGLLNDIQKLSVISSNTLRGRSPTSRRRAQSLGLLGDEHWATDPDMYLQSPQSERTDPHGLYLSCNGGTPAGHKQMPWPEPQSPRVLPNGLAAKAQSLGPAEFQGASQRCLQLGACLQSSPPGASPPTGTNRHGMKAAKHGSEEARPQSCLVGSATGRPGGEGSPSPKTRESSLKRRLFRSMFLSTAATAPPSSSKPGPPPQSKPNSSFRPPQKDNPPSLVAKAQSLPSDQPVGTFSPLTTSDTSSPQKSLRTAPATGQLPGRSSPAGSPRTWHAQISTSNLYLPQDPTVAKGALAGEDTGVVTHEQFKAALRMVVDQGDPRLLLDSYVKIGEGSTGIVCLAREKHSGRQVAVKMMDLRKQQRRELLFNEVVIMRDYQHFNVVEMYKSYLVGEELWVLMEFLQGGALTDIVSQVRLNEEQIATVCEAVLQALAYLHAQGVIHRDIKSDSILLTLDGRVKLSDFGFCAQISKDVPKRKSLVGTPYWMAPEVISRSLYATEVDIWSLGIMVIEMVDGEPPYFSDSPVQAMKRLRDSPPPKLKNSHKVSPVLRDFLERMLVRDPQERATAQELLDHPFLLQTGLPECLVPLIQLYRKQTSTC", "experiment": "Inhibition of human PAK6 assessed as enzyme activity at 1 uM using RRRLSFAEPG as substrate preincubated for 20 mins followed by [gamma-33P]-ATP addition and measured after 120 mins by radiometric Hot-SpotSM Kinase assay relative to control"}},
  "data": [
    {"smiles": "CC[C@H](Nc1ncnc2[nH]cnc12)c1nc2cccc(F)c2c(=O)n1-c1ccccc1", "values": [
      {"measurement": "Activity", "setting": "[1]", "value": 94.8, "unit": "%"},
      {"measurement": "Activity", "setting": "[2]", "value": 109, "unit": "%"},
      {"measurement": "Activity", "setting": "[3]", "value": 105, "unit": "%"},
      {"measurement": "Activity", "setting": "[4]", "value": 96.6, "unit": "%"},
      {"measurement": "Activity", "setting": "[5]", "value": 88.5, "unit": "%"},
      {"measurement": "Activity", "setting": "[6]", "value": 94, "unit": "%"},
      {"measurement": "Activity", "setting": "[7]", "value": 90.7, "unit": "%"},
      {"measurement": "Activity", "setting": "[8]", "value": 95.2, "unit": "%"},
      {"measurement": "Activity", "setting": "[9]", "value": 98.8, "unit": "%"},
      {"measurement": "Activity", "setting": "[10]", "value": 105, "unit": "%"},
      {"measurement": "Activity", "setting": "[11]", "value": 99.4, "unit": "%"},
      {"measurement": "Activity", "setting": "[12]", "value": 102, "unit": "%"}
    ]},
    {"smiles": "C[C@H](Nc1ncnc2nc[nH]c12)c1cc2cccc(Cl)c2c(=O)n1-c1ccccc1", "values": [
      {"measurement": "Activity", "setting": "[1]", "value": 92.6, "unit": "%"},
      {"measurement": "Activity", "setting": "[2]", "value": 104, "unit": "%"},
      {"measurement": "Activity", "setting": "[3]", "value": 102, "unit": "%"},
      {"measurement": "Activity", "setting": "[4]", "value": 96.4, "unit": "%"},
      {"measurement": "Activity", "setting": "[5]", "value": 87.7, "unit": "%"},
      {"measurement": "Activity", "setting": "[6]", "value": 98.2, "unit": "%"},
      {"measurement": "Activity", "setting": "[7]", "value": 79.4, "unit": "%"},
      {"measurement": "Activity", "setting": "[8]", "value": 93.9, "unit": "%"},
      {"measurement": "Activity", "setting": "[9]", "value": 103, "unit": "%"},
      {"measurement": "Activity", "setting": "[10]", "value": 102, "unit": "%"},
      {"measurement": "Activity", "setting": "[11]", "value": 103, "unit": "%"},
      {"measurement": "Activity", "setting": "[12]", "value": 99.5, "unit": "%"}
    ]},
    {"smiles": "CC(C)Oc1ccc(-c2nn([C@@H](C)c3oc4ccc(F)cc4c(=O)c3-c3cccc(F)c3)c3ncnc(N)c23)cc1F", "note": "[UMBRALISIB]", "values": [
      {"measurement": "Activity", "setting": "[1]", "value": 89.3, "unit": "%"},
      {"measurement": "Activity", "setting": "[2]", "value": 117, "unit": "%"},
      {"measurement": "Activity", "setting": "[3]", "value": 105, "unit": "%"},
      {"measurement": "Activity", "setting": "[4]", "value": 104, "unit": "%"},
      {"measurement": "Activity", "setting": "[5]", "value": 88.4, "unit": "%"},
      {"measurement": "Activity", "setting": "[6]", "value": 95.7, "unit": "%"},
      {"measurement": "Activity", "setting": "[7]", "value": 100, "unit": "%"},
      {"measurement": "Activity", "setting": "[8]", "value": 104, "unit": "%"},
      {"measurement": "Activity", "setting": "[9]", "value": 99.6, "unit": "%"},
      {"measurement": "Activity", "setting": "[10]", "value": 102, "unit": "%"},
      {"measurement": "Activity", "setting": "[11]", "value": 97.4, "unit": "%"},
      {"measurement": "Activity", "setting": "[12]", "value": 97.2, "unit": "%"}
    ]}
  ]
}
